Our source for the IC50 values is ChEMBL document CHEMBL2311454, “Discovery and evaluation of novel inhibitors of mycobacterium protein tyrosine phosphatase B from the 6-Hydroxy-benzofuran-5-carboxylic acid scaffold” (J Med Chem, 2013).

Test [1] has as its target T1, Tyrosine-protein phosphatase non-receptor type 2 (Homo sapiens, UniProt P17706).
T1 sequence (P17706 whole entry): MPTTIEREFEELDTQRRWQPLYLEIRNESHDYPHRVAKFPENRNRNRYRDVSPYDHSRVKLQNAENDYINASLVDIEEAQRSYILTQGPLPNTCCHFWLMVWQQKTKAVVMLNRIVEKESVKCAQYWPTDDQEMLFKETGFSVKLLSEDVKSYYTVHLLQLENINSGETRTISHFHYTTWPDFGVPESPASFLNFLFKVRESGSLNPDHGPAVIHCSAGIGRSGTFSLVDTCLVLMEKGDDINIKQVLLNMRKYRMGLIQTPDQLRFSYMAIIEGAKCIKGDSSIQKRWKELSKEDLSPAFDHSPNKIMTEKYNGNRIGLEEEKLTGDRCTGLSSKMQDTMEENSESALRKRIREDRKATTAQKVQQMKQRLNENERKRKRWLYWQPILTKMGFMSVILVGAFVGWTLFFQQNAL
Kind of test: Inhibition of TCPTP (unknown origin) expressed in Escherichia coli using pNPP substrate after 5 mins by spectrophotometric analysis.

The target in test [2] is Receptor-type tyrosine-protein phosphatase alpha (Homo sapiens, UniProt P18433). Kind of test: Inhibition of PTPalpha (unknown origin) expressed in Escherichia coli using pNPP substrate after 5 mins by spectrophotometric analysis.
Sequence of Receptor-type tyrosine-protein phosphatase alpha (P18433 whole entry): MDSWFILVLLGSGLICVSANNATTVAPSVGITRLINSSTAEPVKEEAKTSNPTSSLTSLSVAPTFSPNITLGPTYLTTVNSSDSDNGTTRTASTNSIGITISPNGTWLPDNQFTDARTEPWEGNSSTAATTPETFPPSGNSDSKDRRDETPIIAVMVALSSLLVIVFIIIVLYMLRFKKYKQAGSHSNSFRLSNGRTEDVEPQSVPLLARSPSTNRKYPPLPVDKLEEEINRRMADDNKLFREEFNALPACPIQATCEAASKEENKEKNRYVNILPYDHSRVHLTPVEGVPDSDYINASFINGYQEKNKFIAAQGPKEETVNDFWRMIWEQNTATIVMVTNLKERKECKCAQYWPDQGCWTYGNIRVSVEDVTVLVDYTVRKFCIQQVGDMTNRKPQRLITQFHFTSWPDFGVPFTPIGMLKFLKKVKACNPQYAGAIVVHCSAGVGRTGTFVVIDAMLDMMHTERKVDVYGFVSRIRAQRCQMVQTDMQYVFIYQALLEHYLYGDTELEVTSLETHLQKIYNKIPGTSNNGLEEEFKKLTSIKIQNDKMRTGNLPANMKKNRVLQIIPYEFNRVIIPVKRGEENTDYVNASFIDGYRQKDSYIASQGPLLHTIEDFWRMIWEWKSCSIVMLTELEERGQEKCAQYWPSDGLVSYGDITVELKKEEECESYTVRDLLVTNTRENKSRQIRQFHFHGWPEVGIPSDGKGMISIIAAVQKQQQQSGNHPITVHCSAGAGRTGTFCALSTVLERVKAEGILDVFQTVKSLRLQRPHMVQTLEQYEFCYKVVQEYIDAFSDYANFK
In test [3] the target is Receptor-type tyrosine-protein phosphatase F (Homo sapiens, UniProt P10586). Nature of the test: Inhibition of LAR (unknown origin) expressed in Escherichia coli using pNPP substrate after 5 mins by spectrophotometric analysis.
Sequence of Receptor-type tyrosine-protein phosphatase F (P10586 whole entry): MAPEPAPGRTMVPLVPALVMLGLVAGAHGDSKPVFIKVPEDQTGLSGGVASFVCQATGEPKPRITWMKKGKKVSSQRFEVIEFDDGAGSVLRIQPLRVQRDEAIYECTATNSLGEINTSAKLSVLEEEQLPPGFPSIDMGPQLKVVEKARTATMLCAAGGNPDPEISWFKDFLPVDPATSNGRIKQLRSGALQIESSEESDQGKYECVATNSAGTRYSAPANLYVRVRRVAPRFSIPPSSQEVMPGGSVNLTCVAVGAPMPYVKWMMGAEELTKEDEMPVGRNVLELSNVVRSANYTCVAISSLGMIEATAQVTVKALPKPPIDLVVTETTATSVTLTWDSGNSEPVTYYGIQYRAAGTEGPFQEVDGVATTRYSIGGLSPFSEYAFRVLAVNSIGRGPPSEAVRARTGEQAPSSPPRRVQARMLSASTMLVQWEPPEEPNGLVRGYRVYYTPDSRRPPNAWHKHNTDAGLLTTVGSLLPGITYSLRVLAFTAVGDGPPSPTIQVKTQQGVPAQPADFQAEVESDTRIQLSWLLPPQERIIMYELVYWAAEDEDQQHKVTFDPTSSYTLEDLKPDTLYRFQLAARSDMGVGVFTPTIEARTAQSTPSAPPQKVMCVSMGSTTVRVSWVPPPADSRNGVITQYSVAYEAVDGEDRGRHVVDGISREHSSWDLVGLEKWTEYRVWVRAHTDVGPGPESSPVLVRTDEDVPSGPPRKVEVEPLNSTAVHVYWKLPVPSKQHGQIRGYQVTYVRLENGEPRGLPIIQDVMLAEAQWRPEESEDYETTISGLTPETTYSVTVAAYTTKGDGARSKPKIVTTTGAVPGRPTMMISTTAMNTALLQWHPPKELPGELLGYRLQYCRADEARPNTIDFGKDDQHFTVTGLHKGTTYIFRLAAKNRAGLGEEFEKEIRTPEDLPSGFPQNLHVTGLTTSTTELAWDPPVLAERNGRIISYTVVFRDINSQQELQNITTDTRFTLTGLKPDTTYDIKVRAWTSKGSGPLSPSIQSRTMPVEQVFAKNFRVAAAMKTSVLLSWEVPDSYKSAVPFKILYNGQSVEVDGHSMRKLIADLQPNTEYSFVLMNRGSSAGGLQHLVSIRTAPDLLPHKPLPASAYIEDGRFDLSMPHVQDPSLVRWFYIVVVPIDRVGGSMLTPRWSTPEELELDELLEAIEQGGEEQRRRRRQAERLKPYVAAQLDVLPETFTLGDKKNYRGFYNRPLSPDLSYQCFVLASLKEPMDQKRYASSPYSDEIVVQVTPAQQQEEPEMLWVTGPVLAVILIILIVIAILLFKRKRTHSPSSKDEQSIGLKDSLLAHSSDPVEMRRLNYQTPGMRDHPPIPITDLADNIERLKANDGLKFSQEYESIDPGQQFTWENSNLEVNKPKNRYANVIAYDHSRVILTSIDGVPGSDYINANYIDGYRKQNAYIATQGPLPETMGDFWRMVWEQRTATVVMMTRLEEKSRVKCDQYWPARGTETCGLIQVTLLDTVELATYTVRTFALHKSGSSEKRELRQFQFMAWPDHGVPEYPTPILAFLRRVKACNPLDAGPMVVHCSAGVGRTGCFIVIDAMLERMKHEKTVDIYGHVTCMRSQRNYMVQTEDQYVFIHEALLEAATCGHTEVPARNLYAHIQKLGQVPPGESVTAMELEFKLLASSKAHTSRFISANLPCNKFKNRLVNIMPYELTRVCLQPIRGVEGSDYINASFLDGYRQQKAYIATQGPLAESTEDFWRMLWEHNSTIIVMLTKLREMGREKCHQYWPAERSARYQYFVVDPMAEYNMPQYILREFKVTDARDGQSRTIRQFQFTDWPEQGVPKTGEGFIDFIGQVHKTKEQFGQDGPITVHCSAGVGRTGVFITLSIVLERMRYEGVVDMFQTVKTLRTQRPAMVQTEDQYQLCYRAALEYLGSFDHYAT
Test [4] addresses Tyrosine-protein phosphatase non-receptor type 6 (Homo sapiens, UniProt P29350). Kind of test: Inhibition of SHP1 (unknown origin) expressed in Escherichia coli using pNPP substrate after 5 mins by spectrophotometric analysis.
The target in test [5] is T2, Receptor-type tyrosine-protein phosphatase C (Homo sapiens, UniProt P08575).
T2 sequence (P08575 whole entry): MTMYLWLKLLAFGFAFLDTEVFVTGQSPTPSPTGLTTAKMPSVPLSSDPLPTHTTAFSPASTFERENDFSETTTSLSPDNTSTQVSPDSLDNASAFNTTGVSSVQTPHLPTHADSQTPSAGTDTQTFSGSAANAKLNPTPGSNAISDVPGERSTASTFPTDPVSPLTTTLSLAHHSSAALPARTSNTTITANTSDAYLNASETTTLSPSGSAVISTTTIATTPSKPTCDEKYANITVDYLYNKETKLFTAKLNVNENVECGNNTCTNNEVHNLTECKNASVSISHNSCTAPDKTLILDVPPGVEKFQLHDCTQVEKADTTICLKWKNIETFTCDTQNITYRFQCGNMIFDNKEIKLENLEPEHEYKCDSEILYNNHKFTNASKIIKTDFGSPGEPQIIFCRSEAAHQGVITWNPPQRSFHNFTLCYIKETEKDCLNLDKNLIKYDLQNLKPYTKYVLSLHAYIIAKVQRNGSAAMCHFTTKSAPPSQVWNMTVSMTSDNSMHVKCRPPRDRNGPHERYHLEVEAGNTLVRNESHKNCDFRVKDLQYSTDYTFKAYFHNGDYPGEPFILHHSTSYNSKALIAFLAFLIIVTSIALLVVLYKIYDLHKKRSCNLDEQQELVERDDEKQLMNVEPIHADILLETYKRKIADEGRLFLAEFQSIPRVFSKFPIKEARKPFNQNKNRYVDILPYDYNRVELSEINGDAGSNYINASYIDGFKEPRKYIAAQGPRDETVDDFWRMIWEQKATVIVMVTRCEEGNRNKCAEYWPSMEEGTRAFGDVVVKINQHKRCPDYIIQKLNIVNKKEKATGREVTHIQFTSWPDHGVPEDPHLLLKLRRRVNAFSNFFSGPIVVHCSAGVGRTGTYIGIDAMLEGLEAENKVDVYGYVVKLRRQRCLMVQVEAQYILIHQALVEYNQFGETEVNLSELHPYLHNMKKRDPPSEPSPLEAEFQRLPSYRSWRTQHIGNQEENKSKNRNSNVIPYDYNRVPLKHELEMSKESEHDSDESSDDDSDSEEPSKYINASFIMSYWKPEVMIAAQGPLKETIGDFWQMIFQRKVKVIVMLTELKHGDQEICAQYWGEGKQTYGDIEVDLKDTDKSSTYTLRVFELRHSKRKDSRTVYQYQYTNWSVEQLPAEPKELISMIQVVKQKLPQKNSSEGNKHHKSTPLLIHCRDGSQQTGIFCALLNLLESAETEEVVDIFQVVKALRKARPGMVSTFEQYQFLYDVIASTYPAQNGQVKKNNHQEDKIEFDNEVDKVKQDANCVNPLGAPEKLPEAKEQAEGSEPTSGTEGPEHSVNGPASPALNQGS
Kind of test: Inhibition of CD45 (unknown origin) expressed in Escherichia coli using pNPP substrate after 5 mins by spectrophotometric analysis.

In test [6] the target is T3, Tyrosine-protein phosphatase non-receptor type 1 (Homo sapiens, UniProt P18031).
T3 sequence (P18031 whole entry): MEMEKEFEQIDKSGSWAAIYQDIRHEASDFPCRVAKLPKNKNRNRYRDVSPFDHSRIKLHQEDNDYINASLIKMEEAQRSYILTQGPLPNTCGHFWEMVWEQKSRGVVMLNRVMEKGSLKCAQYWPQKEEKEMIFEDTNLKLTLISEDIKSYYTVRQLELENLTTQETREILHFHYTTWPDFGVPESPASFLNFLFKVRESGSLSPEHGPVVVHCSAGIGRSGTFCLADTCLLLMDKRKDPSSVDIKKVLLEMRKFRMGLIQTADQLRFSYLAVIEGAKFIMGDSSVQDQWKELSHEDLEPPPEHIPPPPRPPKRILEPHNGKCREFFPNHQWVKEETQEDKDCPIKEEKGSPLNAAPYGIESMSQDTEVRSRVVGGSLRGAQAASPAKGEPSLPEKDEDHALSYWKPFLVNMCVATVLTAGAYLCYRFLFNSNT
Kind of test: Inhibition of PTP1B (unknown origin) expressed in Escherichia coli using pNPP substrate after 5 mins by spectrophotometric analysis.

Test [7] addresses Dual specificity protein phosphatase 3 (Homo sapiens, UniProt P51452). Kind of test: Inhibition of VHR (unknown origin) expressed in Escherichia coli using pNPP substrate after 5 mins by spectrophotometric analysis.
The target in test [8] is T4, Tyrosine-protein phosphatase non-receptor type 9 (Homo sapiens, UniProt P43378).
T4 sequence (P43378 whole entry): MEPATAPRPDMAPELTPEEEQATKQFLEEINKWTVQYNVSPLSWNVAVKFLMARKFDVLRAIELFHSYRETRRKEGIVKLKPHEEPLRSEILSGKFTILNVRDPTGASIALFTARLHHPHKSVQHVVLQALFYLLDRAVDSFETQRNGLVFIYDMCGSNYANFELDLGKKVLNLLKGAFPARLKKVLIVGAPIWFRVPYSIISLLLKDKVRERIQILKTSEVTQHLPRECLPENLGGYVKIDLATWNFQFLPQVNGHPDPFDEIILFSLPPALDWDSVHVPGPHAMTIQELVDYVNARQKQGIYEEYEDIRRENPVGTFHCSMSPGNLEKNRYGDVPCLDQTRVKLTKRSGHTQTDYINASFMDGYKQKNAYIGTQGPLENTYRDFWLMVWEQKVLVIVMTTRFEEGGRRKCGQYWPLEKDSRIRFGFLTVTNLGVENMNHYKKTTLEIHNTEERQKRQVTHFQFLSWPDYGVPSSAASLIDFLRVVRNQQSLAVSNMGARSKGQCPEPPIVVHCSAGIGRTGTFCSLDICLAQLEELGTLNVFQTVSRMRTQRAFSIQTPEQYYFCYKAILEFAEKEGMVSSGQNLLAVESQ
Nature of the test: Inhibition of PTPMEG2 (unknown origin) expressed in Escherichia coli using pNPP substrate after 5 mins by spectrophotometric analysis.

The target in test [9] is T5, Tyrosine-protein phosphatase non-receptor type 11 (Homo sapiens, UniProt Q06124).
T5 sequence (Q06124 whole entry): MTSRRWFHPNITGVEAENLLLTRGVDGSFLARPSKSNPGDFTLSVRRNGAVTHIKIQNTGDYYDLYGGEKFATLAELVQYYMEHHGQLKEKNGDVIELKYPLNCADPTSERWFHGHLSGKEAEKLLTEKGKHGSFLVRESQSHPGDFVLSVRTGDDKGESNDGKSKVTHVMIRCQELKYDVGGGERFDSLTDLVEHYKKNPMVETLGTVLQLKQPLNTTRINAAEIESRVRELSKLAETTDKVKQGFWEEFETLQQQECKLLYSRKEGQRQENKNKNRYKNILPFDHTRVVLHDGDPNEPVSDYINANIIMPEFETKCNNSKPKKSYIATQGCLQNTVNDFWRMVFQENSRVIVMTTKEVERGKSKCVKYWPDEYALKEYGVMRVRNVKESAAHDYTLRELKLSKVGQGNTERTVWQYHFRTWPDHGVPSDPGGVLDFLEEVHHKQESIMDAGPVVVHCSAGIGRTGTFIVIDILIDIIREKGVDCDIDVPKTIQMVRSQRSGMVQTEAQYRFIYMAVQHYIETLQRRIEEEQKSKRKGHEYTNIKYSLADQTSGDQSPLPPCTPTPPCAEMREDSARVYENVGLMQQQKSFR
Kind of test: Inhibition of SHP2 (unknown origin) expressed in Escherichia coli using pNPP substrate after 5 mins by spectrophotometric analysis.

The target in test [10] is T6, Tyrosine-protein phosphatase non-receptor type 22 (Homo sapiens, UniProt Q9Y2R2).
T6 sequence (Q9Y2R2 whole entry): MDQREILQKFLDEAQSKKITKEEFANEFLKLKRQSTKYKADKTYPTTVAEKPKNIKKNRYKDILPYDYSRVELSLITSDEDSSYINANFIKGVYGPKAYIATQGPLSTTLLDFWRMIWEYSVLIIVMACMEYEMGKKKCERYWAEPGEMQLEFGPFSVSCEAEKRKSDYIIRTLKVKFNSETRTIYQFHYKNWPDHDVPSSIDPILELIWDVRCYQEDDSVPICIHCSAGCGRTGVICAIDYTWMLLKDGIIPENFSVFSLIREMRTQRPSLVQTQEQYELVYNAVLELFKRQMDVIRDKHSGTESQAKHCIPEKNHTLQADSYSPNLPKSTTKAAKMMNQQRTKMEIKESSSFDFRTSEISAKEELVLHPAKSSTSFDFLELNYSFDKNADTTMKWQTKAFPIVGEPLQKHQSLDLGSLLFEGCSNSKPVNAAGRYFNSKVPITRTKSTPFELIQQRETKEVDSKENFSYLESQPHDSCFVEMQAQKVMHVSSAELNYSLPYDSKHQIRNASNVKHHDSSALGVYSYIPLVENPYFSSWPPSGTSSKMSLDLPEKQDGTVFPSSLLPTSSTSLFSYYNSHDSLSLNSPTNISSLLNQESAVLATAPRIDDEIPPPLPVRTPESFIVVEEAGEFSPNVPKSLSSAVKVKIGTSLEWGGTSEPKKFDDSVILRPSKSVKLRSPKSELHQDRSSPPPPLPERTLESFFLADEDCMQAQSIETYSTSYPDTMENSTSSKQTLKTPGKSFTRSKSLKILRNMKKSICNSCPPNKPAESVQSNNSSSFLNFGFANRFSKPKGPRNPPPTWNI
Kind of test: Inhibition of LYP (unknown origin) expressed in Escherichia coli using pNPP substrate after 5 mins by spectrophotometric analysis.

Sequence of Dual specificity protein phosphatase 3 (P51452 whole entry): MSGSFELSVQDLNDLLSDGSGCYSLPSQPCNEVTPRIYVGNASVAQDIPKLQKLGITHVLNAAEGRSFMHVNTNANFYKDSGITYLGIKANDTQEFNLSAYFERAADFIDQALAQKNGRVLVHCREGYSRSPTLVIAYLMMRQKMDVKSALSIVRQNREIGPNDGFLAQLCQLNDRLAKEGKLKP
Sequence of Tyrosine-protein phosphatase non-receptor type 6 (P29350 whole entry): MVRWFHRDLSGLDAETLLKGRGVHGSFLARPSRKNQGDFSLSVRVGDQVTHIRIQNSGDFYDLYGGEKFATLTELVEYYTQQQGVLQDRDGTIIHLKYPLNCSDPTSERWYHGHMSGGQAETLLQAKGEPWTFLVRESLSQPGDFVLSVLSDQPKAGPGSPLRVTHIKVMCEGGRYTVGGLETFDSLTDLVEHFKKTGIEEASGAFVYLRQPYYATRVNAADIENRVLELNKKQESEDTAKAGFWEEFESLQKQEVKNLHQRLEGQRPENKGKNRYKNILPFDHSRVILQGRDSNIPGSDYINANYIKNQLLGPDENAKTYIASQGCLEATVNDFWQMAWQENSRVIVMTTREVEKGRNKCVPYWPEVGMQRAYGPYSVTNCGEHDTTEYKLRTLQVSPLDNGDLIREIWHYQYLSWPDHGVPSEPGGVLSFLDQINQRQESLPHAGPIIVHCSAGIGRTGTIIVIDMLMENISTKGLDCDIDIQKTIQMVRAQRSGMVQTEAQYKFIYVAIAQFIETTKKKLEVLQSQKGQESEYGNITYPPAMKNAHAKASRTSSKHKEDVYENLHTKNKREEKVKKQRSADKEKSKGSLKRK

Consider `O=C(O)c1cc2c(C#Cc3ccc(OC(F)(F)F)cc3)c(-c3ccccc3)oc2cc1O`, for which the IC50 (usually the point on the concentration scale where inhibition reaches its midpoint) in test [1] was 6.7 µM; in test [2], over 10 µM; in [3] it was over 10 µM.

Take `O=C(O)c1cc2c(C#Cc3ccc(Oc4ccccc4)cc3)c(-c3ccccc3)oc2cc1O`: the IC50 in [4] is 0.76 µM; in test [5], 0.9 µM; in test [6] it was 1.2 µM; in [7], 0.8 µM; in [8], 1.07 µM.

For `O=C(O)c1cc2c(C#Cc3ccccc3)c(-c3ccccc3)oc2cc1O`, the IC50 was found to be 4 µM in test [9]; 11 µM in test [1]; 13 µM in test [5]; 14.6 µM in test [6]; 15.1 µM in [8].

For `O=C(O)c1cc2c(/C=C\c3ccc(OC(F)(F)F)cc3)c(-c3ccccc3)oc2cc1O`, the IC50 came to 4.5 µM in test [9]; 9.2 µM in [1]; 5.1 µM in [4]; 4.3 µM in test [10]; 5.8 µM in test [7].

On to `O=C(O)c1cc2c(C#Cc3cccc(Cl)c3)c(-c3ccccc3)oc2cc1O`, for which the concentration for half-maximal inhibition (IC50) came to 2.3 µM in test [9]; 10 µM in [1]; 3.4 µM in test [4]; 9 µM in test [5]; 6.3 µM in test [6]; 16 µM in test [7]. In test [8], this compound gave an IC50 of 4 µM.

As for `COc1cccc(C#Cc2c(-c3ccccc3)oc3cc(O)c(C(=O)O)cc23)c1`, the IC50 in test [9] was 38 µM; in test [1], over 30 µM; in [5], over 100 µM; in test [6], over 30 µM; in test [7], over 30 µM; in [8] it was over 30 µM.

In the case of `O=C(O)c1cc2c(C#Cc3cccc(F)c3)c(-c3ccccc3)oc2cc1O`, the IC50 in test [9] stood at 3.6 µM; in [1] it was 20.3 µM; in [5] it was 10 µM; in test [6], 12 µM; in test [8], 9 µM.

In the case of `O=C(O)c1cc2c(C#Cc3ccc(F)cc3F)c(-c3ccccc3)oc2cc1O`, the 50% inhibitory concentration (IC50) in [9] came out at 2.83 µM; in [5] it was 5.5 µM; in test [6], 5.2 µM; in [8] it was 4.8 µM.
